In PubChem BioAssay (NCI):
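Cultured in 96-well plates, cells were exposed to test compound for 48 hours across five concentrations. Abbreviation: GI50, concentration required for 50% inhibition of growth. At the TGI there is no net growth.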

Experiments:
Assay in all cases: NCI tumour cell line growth inhibition, 48 h
[1] = tested on: COLO 205 colon
[2] = tested on: NCI/ADR-RES ovarian
[3] = tested on: IGROV1 ovarian
[4] = tested on: UACC-257 melanoma
[5] = tested on: TK-10 renal
[6] = tested on: BT-549 breast
[7] = tested on: ACHN renal
[8] = tested on: HOP-92 NSCLC
[9] = tested on: SK-OV-3 ovarian
[10] = tested on: SK-MEL-5 melanoma
[11] = tested on: HT29 colon
[12] = tested on: SK-MEL-28 melanoma
[13] = tested on: 786-0 renal
[14] = tested on: MDA-MB-435
[15] = tested on: RPMI-8226 leukemia
[16] = tested on: HS 578T breast
[17] = tested on: M14 melanoma
[18] = tested on: CAKI-1 renal
[19] = tested on: UACC-62 melanoma
[20] = tested on: CCRF-CEM leukemia
[21] = tested on: UO-31 renal
[22] = tested on: SW-620 colon
[23] = tested on: MALME-3M melanoma
[24] = tested on: KM12 colon
[25] = tested on: MDA-MB-231 breast
[26] = tested on: SN12C renal
[27] = tested on: NCI-H522 lung
[28] = tested on: HCC-2998 colon
[29] = tested on: SF-539 CNS
[30] = tested on: NCI-H460 lung
[31] = tested on: HOP-62 NSCLC
[32] = tested on: A549 NSCLC
[33] = tested on: A498 renal
[34] = tested on: LOX IMVI melanoma
[35] = tested on: SF-268 CNS
[36] = tested on: NCI-H23 lung
[37] = tested on: K-562 leukemia
[38] = tested on: SR leukemia
[39] = tested on: MOLT-4 leukemia
[40] = tested on: RXF 393 renal
[41] = tested on: HCT-116 colon
[42] = tested on: PC-3 prostate
[43] = tested on: OVCAR-8 ovarian
[44] = tested on: MCF7 breast
[45] = tested on: U251 CNS
[46] = tested on: DU-145 prostate
[47] = tested on: EKVX NSCLC
[48] = tested on: SNB-19 CNS
[49] = tested on: T-47D breast
[50] = tested on: OVCAR-3 ovarian
[51] = tested on: OVCAR-5 ovarian
[52] = tested on: SK-MEL-2 melanoma
[53] = tested on: SF-295 CNS
[54] = tested on: NCI-H226 lung
[55] = tested on: HCT-15 colon
[56] = tested on: SNB-75 CNS
[57] = tested on: OVCAR-4 ovarian
[58] = tested on: HL-60(TB) leukemia

## CN(C)CCCOc1c2ccc(Cl)cc2nc2c1oc1ccc(Cl)cc12
[1]
  GI50: 1.33 µM
  TGI: 7.87 µM
[2]
  GI50: 3.72 µM
  TGI: 17.7 µM
[3]
  GI50: 2.34 µM
  TGI: 12.5 µM
[4]
  GI50: 3.71 µM
  TGI: 9.21 µM
[5]
  GI50: 6.62 µM
  TGI: 21.1 µM
[6]
  GI50: 7.26 µM
  TGI: > 30.5 µM
[7]
  GI50: 2.51 µM
  TGI: 13.2 µM
[8]
  GI50: 1.08 µM
  TGI: 12.9 µM
[9]
  GI50: 3.79 µM
  TGI: 15 µM
[10]
  GI50: 4.48 µM
  TGI: 8.96 µM
[11]
  GI50: 1.22 µM
  TGI: 5.15 µM
[12]
  GI50: 5.09 µM
  TGI: 9.67 µM
[13]
  GI50: 4.12 µM
  TGI: 16.1 µM
[14]
  GI50: 2.17 µM
  TGI: 6.39 µM
[15]
  GI50: 1.97 µM
[16]
  GI50: 1.98 µM
  TGI: 9.43 µM
[17]
  GI50: 3.15 µM
  TGI: 9.37 µM
[18]
  GI50: 1.39 µM
  TGI: 5.96 µM
[19]
  GI50: 4.85 µM
  TGI: 10.1 µM
[20]
  GI50: 2.18 µM
  TGI: 14.1 µM
[21]
  GI50: 1.35 µM
  TGI: 11.7 µM
[22]
  GI50: 0.9 µM
  TGI: 4.36 µM
[23]
  GI50: 3.24 µM
  TGI: 16.2 µM
[24]
  GI50: 2.22 µM
  TGI: 7.52 µM
[25]
  GI50: 1.92 µM
  TGI: 6.5 µM
[26]
  GI50: 1.46 µM
  TGI: 5.55 µM
[27]
  GI50: 4.33 µM
  TGI: 23.5 µM
[28]
  GI50: 4.18 µM
  TGI: 15.5 µM
[29]
  GI50: 3.37 µM
  TGI: 13.8 µM
[30]
  GI50: 1.08 µM
  TGI: 3.92 µM
[31]
  GI50: 3.21 µM
  TGI: 22 µM
[32]
  GI50: 2.73 µM
  TGI: 11.8 µM
[33]
  GI50: 6.44 µM
  TGI: 27.7 µM
[34]
  GI50: 0.857 µM
  TGI: 3.56 µM
[35]
  GI50: 4.85 µM
  TGI: 21.8 µM
[36]
  GI50: 3.43 µM
  TGI: 15.6 µM
[37]
  GI50: 1.05 µM
  TGI: 5.07 µM
[38]
  GI50: 1.18 µM
  TGI: 5.33 µM
[39]
  GI50: 1.23 µM
  TGI: 6.58 µM
[40]
  GI50: 1.8 µM
  TGI: 4.88 µM
[41]
  GI50: 3.73 µM
  TGI: 23.6 µM
[42]
  GI50: 1.69 µM
  TGI: 9.2 µM
[43]
  GI50: 1.49 µM
  TGI: 6.04 µM
[44]
  GI50: 1.24 µM
  TGI: 4.9 µM
[45]
  GI50: 3.23 µM
  TGI: 12.9 µM
[46]
  GI50: 4.21 µM
  TGI: 14.4 µM
[47]
  GI50: 2.46 µM
  TGI: 7.3 µM
[48]
  GI50: 1.89 µM
  TGI: 6.61 µM
[49]
  GI50: 12.7 µM
  TGI: > 59.1 µM
[50]
  GI50: 2.43 µM
  TGI: 7.57 µM
[51]
  GI50: 2.46 µM
  TGI: 6.76 µM
[52]
  GI50: 4.66 µM
  TGI: 12.4 µM
[53]
  GI50: 2.12 µM
  TGI: 6.44 µM
[54]
  GI50: 1.99 µM
  TGI: 8.13 µM
[55]
  GI50: 1.35 µM
  TGI: 5.41 µM
[56]
  GI50: 1.41 µM
  TGI: 6.65 µM
[57]
  GI50: 2.1 µM
  TGI: 6.4 µM
[58]
  GI50: 2.95 µM
  TGI: 15.7 µM

## CC(C)(C)Nc1nc2c(OCCc3ccccc3)cccn2c1-c1cccc(F)c1
[1]
  GI50: 8.88 µM
  TGI: 26.8 µM
[2]
  GI50: 4.25 µM
  TGI: > 100 µM
[3]
  GI50: 8.99 µM
  TGI: > 100 µM
[4]
  GI50: 7.56 µM
  TGI: > 100 µM
[5]
  GI50: 14.2 µM
  TGI: > 100 µM
[6]
  GI50: 10.3 µM
  TGI: 36.3 µM
[7]
  GI50: 4.63 µM
  TGI: > 100 µM
[8]
  GI50: 3.3 µM
  TGI: > 100 µM
[9]
  GI50: 19.9 µM
  TGI: > 100 µM
[10]
  GI50: 5.26 µM
  TGI: 17.7 µM
[11]
  GI50: 5.02 µM
  TGI: 24 µM
[12]
  GI50: 3.93 µM
  TGI: 74.6 µM
[13]
  GI50: 13.5 µM
  TGI: 52.8 µM
[14]
  GI50: 5.07 µM
  TGI: 27.4 µM
[15]
  GI50: 3.7 µM
  TGI: 62.1 µM
[16]
  GI50: 10.1 µM
  TGI: 64.2 µM
[17]
  GI50: 6.79 µM
  TGI: 32.1 µM
[18]
  GI50: 5.22 µM
  TGI: > 100 µM
[19]
  GI50: 2.92 µM
  TGI: 12.2 µM
[20]
  GI50: 6.53 µM
  TGI: > 100 µM
[21]
  GI50: 2.75 µM
  TGI: 19.7 µM
[22]
  GI50: 11.3 µM
  TGI: 87.1 µM
[23]
  GI50: 3.6 µM
  TGI: 22.8 µM
[24]
  GI50: 4.13 µM
  TGI: > 100 µM
[25]
  GI50: 10.2 µM
  TGI: 26.2 µM
[26]
  GI50: 3.99 µM
  TGI: > 100 µM
[27]
  GI50: 4.17 µM
  TGI: 42.3 µM
[28]
  GI50: 4.81 µM
  TGI: 69.6 µM
[29]
  GI50: 10.1 µM
  TGI: 23.1 µM
[30]
  GI50: 5.5 µM
  TGI: 24.8 µM
[31]
  GI50: 11.8 µM
  TGI: 42 µM
[32]
  GI50: 4.4 µM
  TGI: > 100 µM
[33]
  GI50: 15.8 µM
  TGI: 65.1 µM
[34]
  GI50: 5.02 µM
  TGI: 17 µM
[35]
  GI50: 7.84 µM
  TGI: > 100 µM
[36]
  GI50: 4.13 µM
  TGI: 34.8 µM
[37]
  GI50: 3.49 µM
  TGI: > 100 µM
[38]
  GI50: 4.48 µM
  TGI: > 100 µM
[39]
  GI50: 3.22 µM
  TGI: > 100 µM
[40]
  GI50: 8.78 µM
  TGI: 29.2 µM
[41]
  GI50: 4.12 µM
  TGI: 36 µM
[42]
  GI50: 4.91 µM
  TGI: > 100 µM
[43]
  GI50: 9.39 µM
  TGI: > 100 µM
[44]
  GI50: 4.34 µM
  TGI: 32.4 µM
[45]
  GI50: 6.19 µM
  TGI: 25.2 µM
[46]
  GI50: 9.13 µM
  TGI: > 100 µM
[47]
  GI50: 3.44 µM
  TGI: > 100 µM
[48]
  GI50: 5.81 µM
  TGI: > 100 µM
[49]
  GI50: 3.55 µM
  TGI: > 100 µM
[50]
  GI50: 3.91 µM
  TGI: 39 µM
[51]
  GI50: 8.58 µM
  TGI: > 100 µM
[52]
  GI50: 3.11 µM
  TGI: 12.4 µM
[53]
  GI50: 4.41 µM
  TGI: 22 µM
[54]
  GI50: 6.29 µM
  TGI: 63 µM
[55]
  GI50: 3.51 µM
  TGI: 14.2 µM
[56]
  GI50: 16.1 µM
  TGI: > 100 µM
[57]
  GI50: 4.52 µM
  TGI: > 100 µM
[58]
  GI50: 3.78 µM
  TGI: 18.8 µM
